# How the values were obtained:
# A375 (melanoma) = experiment: In vitro cytotoxic activity assay (MTT), A375; format: cell-based; conditions: Homo sapiens, A-375; cells exposed for 96 hours; 50 % inhibition of cell proliferation; read-out: Cytotoxicity activity IC50, A375 (melanoma)
# Experimental: (§1) Compounds 1-15 were screened for their in vitro cytotoxic activity utilizing a 3-(4,5-dimethyl-thiazol-2-yl)-2,5-diphenyltetrazolium bromide (MTT) assay against selected cancer human cell lines consisting of PC3 (prostate), HCT116 (colon), A375 (melanoma), H1299 (lung), MIAPaCa-2 (pancreas), HL60 (leukemia), MCF7 (breast), MDA-MB-231 (breast) (T. Mosmann, J. Immunol. Meth., 1983, 65, 55-63). The cells were cultured at 37° C. in RMPI1640 medium supplemented with 10% fetal bovine serum, 50 IU/mL penicillin, and 50 μg/mL streptomycin in a 5% CO2 incubator. All cells were sub-cultured 3 times/week by trypsinisation. Viable cells were seeded and allowed to adhere for 12 hours before a test drug was added in 96-well plates at an initial density of 1.0×10^5 cells/mL. Tumor cell lines were separately exposed to various concentrations of the tested compounds followed by incubation at a temperature of 37° C. during 96 hours inside a medium of fresh RMPI 1640. Cells were subsequently incubated at 37° C. using MTT at 0.5 mg/mL during 4 hours. After removal of supernatant, formazan crystals were dissolved in isopropanol and the optical density was measured at 570 nm. CX-4945 was used as a positive control.
# MCF7 (breast) = experiment: In vitro cytotoxic activity assay (MTT), MCF7; format: cell-based; conditions: Homo sapiens, cells exposed for 96 hours, 50 % inhibition of cell proliferation, read-out: Cytotoxicity activity IC50, MCF7 (breast)
# Experimental: as §1
# MDA-MB-231 (breast) = experiment: In vitro cytotoxic activity assay (MTT), MDA-MB-231; format: cell-based; conditions: Homo sapiens, cells exposed for 96 hours, 50 % inhibition of cell proliferation, read-out: Cytotoxicity activity IC50, MDA-MB-231 (breast)
# Experimental: as §1
# HCT116 (colon) = experiment: In vitro cytotoxic activity assay (MTT), HCT116; format: cell-based; conditions: Homo sapiens, HCT-116; cells exposed for 96 hours; 50 % inhibition of cell proliferation; read-out: Cytotoxicity activity IC50, HCT116 (colon)
# Experimental: as §1
# H1299 (lung) = experiment: In vitro cytotoxic activity assay (MTT), H1299; format: cell-based; conditions: Homo sapiens, NCI-H1299; cells exposed for 96 hours; 50 % inhibition of cell proliferation; read-out: Cytotoxicity activity IC50, H1299 (lung)
# Experimental: as §1
# MIAPaCa-2 (pancreas) = experiment: In vitro cytotoxic activity assay (MTT), MIAPaCa-2; format: cell-based; conditions: Homo sapiens, MIA PaCa-2; cells exposed for 96 hours; 50 % inhibition of cell proliferation; read-out: Cytotoxicity activity IC50, MIAPaCa-2 (pancreas)
# Experimental: as §1
# [1] = target: T1, recombinant human CK2 (RRββ-holoenzyme) (Homo sapiens, UniProt P68400); experiment: CK2 Kinase Assay; format: biochemical; conditions: final ATP concentration 15 μM; 10 min at 30° C.; read-out: protein kinase CK2 inhibition IC50
# T1 construct: purchased Millipore
# T1 sequence (P68400 whole entry): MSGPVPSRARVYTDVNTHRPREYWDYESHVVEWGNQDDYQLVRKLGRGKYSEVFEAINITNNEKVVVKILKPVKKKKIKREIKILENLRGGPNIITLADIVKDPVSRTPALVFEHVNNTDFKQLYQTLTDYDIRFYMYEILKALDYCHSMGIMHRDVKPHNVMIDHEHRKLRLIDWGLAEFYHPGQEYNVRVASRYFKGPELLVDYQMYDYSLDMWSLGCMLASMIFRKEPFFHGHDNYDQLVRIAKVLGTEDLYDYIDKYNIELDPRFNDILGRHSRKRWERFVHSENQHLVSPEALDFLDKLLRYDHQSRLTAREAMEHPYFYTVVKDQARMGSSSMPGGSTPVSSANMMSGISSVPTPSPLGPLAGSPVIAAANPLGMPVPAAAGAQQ
# T1 sequence (P67870 whole entry partner): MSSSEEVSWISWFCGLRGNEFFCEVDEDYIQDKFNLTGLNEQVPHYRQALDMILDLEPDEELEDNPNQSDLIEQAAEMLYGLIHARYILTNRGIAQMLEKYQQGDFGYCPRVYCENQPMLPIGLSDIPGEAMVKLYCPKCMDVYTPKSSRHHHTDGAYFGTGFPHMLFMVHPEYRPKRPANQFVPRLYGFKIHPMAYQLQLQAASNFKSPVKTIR
# Experimental: CK2 Kinase Assay was conducted using the protocol as described in Pierre F. et al; J. Med. Chem. 2011, 54, 635-654. The tested compounds in aqueous solution were added at a volume of 10 μL to a reaction mixture comprising 10 μL of assay dilution buffer (ADB; 20 mM MOPS, pH 7.2, 25 mM β-glycerol phosphate, 5 mM EGTA, 1 mM sodium orthovanadate, and 1 mM dithiothreitol), 10 μL of substrate peptide (RRRDDDSDDD, dissolved in ADB at a concentration of 1 mM), 10 μL of recombinant human CK2 (RRββ-holoenzyme, 25 ng dissolved in ADB; Millipore). Reactions were initiated by the addition of 10 μL of ATP solution (90% 75 mMMgCl2, 75 μM ATP (final ATP concentration: 15 μM) dissolved in ADB; 10% [γ-33P] ATP (stock 1 mCi/100 μL; 3000 Ci/mmol (Perkin-Elmer) and maintained for 10 min at 30° C. The reactions were quenched with 100 μL of 0.75% phosphoric acid and then transferred to and filtered through a phosphor cellulose filter plate (Millipore). After washing each well five times with 0.75% phosphoric acid, the plate was dried under vacuum for 5 min and, following the addition of 15 μL of scintillation fluid to each well, the residual radioactivity was measured using a Wallac […] counter. The IC50 values were derived from eight concentrations of test inhibitors.
# PC3 (prostate) = experiment: In vitro cytotoxic activity assay (MTT), PC3; format: cell-based; conditions: Homo sapiens; cells exposed for 96 hours; 50 % inhibition of cell proliferation; read-out: Cytotoxicity activity IC50, PC3 (prostate)
# Experimental: as §1
# HL60 (leukemia) = experiment: In vitro cytotoxic activity assay (MTT), HL60; format: cell-based; conditions: Homo sapiens, HL-60; cells exposed for 96 hours; 50 % inhibition of cell proliferation; read-out: Cytotoxicity activity IC50, HL60 (leukemia)
# Experimental: as §1
smiles,measurement,setting,value
"O=C(O)c1cc2c(nc(Nc3cccc(Cl)c3)c3ccncc32)[nH]1 [Compound 1, 5-((3-chlorophenyl)amino)-7H-pyrrolo[2,3-c][2,6]naphthyridine-8-carboxylic Acid]",IC50,A375 (melanoma),2.9 µM
same,IC50,MCF7 (breast),3.5 µM
same,IC50,MDA-MB-231 (breast),3.8 µM
same,IC50,HCT116 (colon),1 µM
same,IC50,H1299 (lung),1.3 µM
same,IC50,MIAPaCa-2 (pancreas),0.9 µM
same,IC50,[1],0.008 µM
same,IC50,PC3 (prostate),2.1 µM
same,IC50,HL60 (leukemia),2.2 µM

# From US12129252B1, “Pyrrolo[2,3-c][2,6]naphthyridine-8-carboxylic acids as CK2 inhibitors” (KING FAISAL UNIVERSITY, priority 2024, dated 2024)
